# How the values were obtained:
# [1] = test system: mature adipocytes (3T3-L1 cells); assay: Synergistic action of 4-hydroxyderricin and insulin to enhance glucose uptake; format: cell-based
# Method: As the evaluation of synergistic action of 4-hydroxyderricin prepared in Example 2 and a low-concentration insulin to enhance glucose uptake, the amount of 2-deoxyglucose uptake into mature adipocytes during the stimulation with the sample was determined partly in accordance with the method described in Example 83.
# The mature adipocytes were prepared according to the method described in item (1) of Example 83.
# After the termination of the culture, the medium was removed, and the cells were washed twice with a 0.1% (w/v) bovine serum albumin (manufactured by Sigma, A8022)-containing Dulbecco's modified Eagle's medium. Thereafter, 1 mL of the same medium containing a solution of 4-hydroxyderricin in dimethyl sulfoxide having a final concentration of 5 μM was added thereto. The cells were cultured overnight at 37° C. in the presence of 5% carbon dioxide gas. Here, a group without addition of 4-hydroxyderricin was set as a negative control. After the overnight culture, the cells were washed twice with a HEPES buffered saline (140 mM NaCl, 5 mM KCl, 2.5 mM MgSO4, 1 mM CaCl2, 20 mM HEPES-Na (pH 7.4)). The amount 0.9 mL of the same buffer containing 4-hydroxyderricin having a final concentration of 5 μM was added thereto. […] Thereafter, 2-deoxy-[1,2-^3H(N)]-glucose subjected to uptake into the adipocytes was determined in the same manner as the method described in item (2) of Example 83.
# [2] = test system: mature adipocytes (3T3-L1 cells); assay: Glucose uptake enhancement inhibited by cytochalasin B; format: cell-based
# Method: The influence of cytochalasin B on 2-deoxyglucose uptake into matured adipocytes during the stimulation with the sample in the adipocytes was tested in accordance with the method shown in Example 83 on whether or not the enhancing action of 4-hydroxyderricin on glucose uptake shown in Example 83 is inhibited by cytochalasin B, which is an inhibitor of a glucose transporter.
# Specifically, as a sample, a group with addition of a dimethyl sulfoxide solution of 4-hydroxyderricin so as to have a final concentration of 7.8 μM was set. Here, there were set a group without addition of the sample as a negative control and a group with addition of insulin so as to have a final concentration of 1 μg/mL as a positive control. Furthermore, there was set a group with addition of cytochalasin B (manufactured by nacalai tesque, 10435-81) to each group so as to have a final concentration of 40 μM in the same time as the time of addition of insulin. Thereafter, 2-deoxy-[1,2-^3H(N)]-glucose subjected to uptake into the adipocytes was determined in the same manner.
# [3] = test system: type II diabetes model mice; assay: Amelioration effects on diabetes of 4-hydroxyderricin (blood glucose level); format: in vivo; conditions: male KK-Ay mice
# Method: Pathological amelioration effects of 4-hydroxyderricin were examined using type II diabetes model mice. Experiments were carried out with five male 12-week old KK-Ay mice (CLEA Japan, Inc.) per group. 4-Hydroxyderricin was suspended or dissolved in a 0.5% (w/v) carboxymethyl cellulose solution (CMC) so as to have a concentration of 4% (w/v), and the suspension or solution was forcibly orally administered to the mice once a day at 200 mg/kg for consecutive days. CMC was administered to each mice in the control group at 5 mL/kg in the same manner. On the day before the beginning of administration, on the fourth day and on the eighteenth day, blood was collected from the veins of mouse tails, and the blood glucose level was determined with a simple blood glucose meter, ACCU-CHEK Compact (Roche Diagnostics K.K.). […] Here, during the experimental period, no changes were found in body weight and general symptoms.
# [4] = test system: mature adipocytes which were induced to be differentiated by xanthoangelol; assay: Glucose uptake into adipocytes induced to be differentiated by xanthoangelol; format: cell-based; conditions: stimulation with 4-hydroxyderricin 20 μM; adipocytes differentiated with xanthoangelol 10 μM
# Method: Adipocytes which were induced to be differentiated by xanthoangelol were obtained, and thereafter it was confirmed on whether the glucose uptake into the adipocytes is enhanced by stimulation with insulin or 4-hydroxyderricin.
# Specifically, as a sample, there was set a group with addition of a dimethyl sulfoxide solution of xanthoangelol having a final concentration of 10 μM. Thereafter, the medium and the sample were exchanged in the same manner as in the method described in Example 82 except that 3-isobutyl-1-methylxanthine having a final concentration of 0.5 mM was added concurrently with the addition of dexamethasone, to give mature adipocytes which were induced to be differentiated by xanthoangelol.
# Next, the amount of 2-deoxyglucose uptake into the mature adipocytes during the stimulation with insulin or 4-hydroxyderricin in the resulting mature adipocytes was determined in the same manner as in the method described in Example 83.
# Specifically, there were set the group without the addition and the group with addition of insulin having a final concentration of 1 μg/mL or 4-hydroxyderricin having a final concentration of 20 μM. Thereafter, the amount of 2-deoxy-[1,2-^3H(N)]-glucose uptake into the adipocytes was determined in the same manner.
# [5] = test system: KK-Ay mice; assay: Glucose tolerance test, xanthoangelol; format: in vivo; conditions: female KK-Ay mice, 200 mg/kg oral once a day
# Method: Amelioration effects for glucose tolerance of xanthoangelol were examined using female 12-week old KK-Ay mice. Xanthoangelol which was previously suspended or dissolved in an olive oil in a concentration of 4% (w/v) was forcibly orally administered to a group to be administered with xanthoangelol at 200 mg/kg once a day for consecutive days. An olive oil was administered to the mice in the control group at 5 mL/kg in the same manner. The mice were fasted over one night spanning the sixteenth day to the seventeenth day from administration, and the glucose tolerance test was carried out in the same manner as in Example 91.
# [6] = 200 mg/kg oral once a day in CMC, mean ± standard error
structure (smiles),measurement,setting,value
"COc1ccc(C(=O)/C=C/c2ccc(O)cc2)c(O)c1CC=C(C)C [4-Hydroxyderricin, 4,2′-Dihydroxy-3′-prenyl-4′-methoxychalcone]","2-deoxy-[1,2-3H(N)]-glucose uptake on addition simultaneously with insulin","[1]; 4-hydroxyderricin 5 μM + insulin 0.01 μg/mL, versus each alone",synergistically increasing the enhancing activity on glucose uptake
same,"2-deoxy-[1,2-3H(N)]-glucose uptake","[1]; 4-hydroxyderricin 5 μM alone, compared to the negative control","enhancement of 2-deoxy-[1,2-^3H(N)]-glucose uptake"
same,"2-deoxy-[1,2-3H(N)]-glucose uptake","[2]; 4-hydroxyderricin 7.8 μM, compared to the negative control","enhancement of 2-deoxy-[1,2-^3H(N)]-glucose uptake"
same,"2-deoxy-[1,2-3H(N)]-glucose uptake on addition of cytochalasin B","[2]; cytochalasin B 40 μM added to the 4-hydroxyderricin 7.8 μM, insulin 1 μg/mL and negative control groups",almost completely inhibited
same,blood glucose level (in words),[3]; 200 mg/kg oral once a day,lowered
same,"Blood Glucose Level, Eighteenth Day",[3]; [6],191 ± 10 mg/dL
same,"Blood Glucose Level, Fourth Day",[3]; [6],187 ± 9 mg/dL
same,changes in body weight and general symptoms,"[3]; 200 mg/kg oral once a day, experimental period",no changes
same,"Blood Glucose Level, Previous Day","[3]; day before beginning of administration, 200 mg/kg oral once a day in CMC, mean ± standard error",262 ± 14 mg/dL
same,"2-deoxy-[1,2-3H(N)]-glucose uptake",[4],"enhancement of 2-deoxy-[1,2-^3H(N)]-glucose uptake"
"CC(C)=CCC/C(C)=C/Cc1c(O)ccc(C(=O)/C=C/c2ccc(O)cc2)c1O [Xanthoangelol, 4,2′,4′-Trihydroxy-3′-geranylchalcone]",action on the elevation in the blood glucose level after the glucose tolerance (in words),[5],suppressive action
same,"Blood Glucose Level, Before Glucose Tolerance","[5]; seventeenth day, fasted",106 ± 7 mg/dL
same,"Blood Glucose Level, 30 Minutes After Tolerance","[5]; seventeenth day, fasted, glucose 1 g/kg i.p.",234 ± 15 mg/dL
